Data: patent publication US20140241995A1, “MICROPATCH FOR ASSESSING CHEMICAL CONTACT ALLERGY” (priority 2011, published 2014)
Several values for one entry are separate records, joined by “and”; a condition that tells them apart may be missing. Identical values can stand only once. Like-named read-outs stand apart in the source and are kept apart here.

Experiments:
subjects = settings: cited from earlier work
patch tested subjects = settings: PPD patch testing, cited from earlier work
[1] = test system: volunteers with a positive history of contact allergy to p-phenylenediamine; test: Occluded patch test with p-phenylenediamine in petrolatum at treatment diameters of 8, 4, 3 and 2 mm; assay type: in vivo, human; settings: 0.1% or 1.0% in petrolatum, under occlusion, diameters 8, 4, 3, 2 mm; reactions at 48 h, 72 h and/or 96 h
Experimental: 15 volunteers with a positive history of contact allergy to p-phenylenediamine were recruited. Contact allergy to p-phenylenediamine was determined based on their response to a standard 48 h, 8 mm diagnostic patch test with 1% p-phenylenediamine in petrolatum. According to their known sensitivity, these volunteers were tested with either 0.1% or 1.0% p-phenylenediamine in petrolatum, under occlusion, with treatment diameters of 8, 4, 3, and 2 mm. Reactions at 48 h, 72 h and/or 96 h were recorded using the Internationally accepted dermatology grading scale of N, ?+, +, ++. The responses were transposed into numerical values (0-3 respectively) and summated. The summated scores are presented below.

Structure (SMILES) | % sensitised (subjects; Row 1: diameter 3 cm, area 7.1 cm^2, total 1000 μg, 142 μg/cm^2) [%] | % sensitised (subjects; Row 2: diameter 3 cm, area 7.1 cm^2, total 500 μg, 71 μg/cm^2) [%] | % sensitised (subjects; Row 3: diameter 3 cm, area 7.1 cm^2, total 250 μg, 35.4 μg/cm^2) [%] | % sensitised (subjects; Row 4: diameter 3 cm, area 7.1 cm^2, total 125 μg, 17.1 μg/cm^2) [%] | % sensitised (subjects; Row 5: diameter 3 cm, area 7.1 cm^2, total 62.5 μg, 8.8 μg/cm^2) [%] | % sensitised (subjects; Row 6: diameter 1.5 cm, area 1.8 cm^2, total 62.5 μg, 35.4 μg/cm^2) | % sensitised (subjects; Row 7: diameter 2.1 cm, area 3.5 cm^2, total 58 μg, 16.4 μg/cm^2) [%] | % sensitised (subjects; Row 8: diameter 3 cm, area 7.1 cm^2, total 116 μg, 16.4 μg/cm^2) [%] | % sensitised (subjects; Row 9: diameter 4.25 cm, area 14.2 cm^2, total 232 μg, 16.4 μg/cm^2) [%] | % sensitised (subjects; Row 10: l cm paper, area 0.8 cm^2, total 30 μg, 38 μg/cm^2) [%] | % sensitised (subjects; Row 11: 3 mm paper, area 0.08 cm^2, total 3 μg, 38 μg/cm^2) [%] | rate of sensitization caused by the test (patch tested subjects; Dawe et al. 2004) | incidence of active sensitization (patch tested subjects; Devos and van der Valk 2001) [%] | impact of reduced patch test diameter on the reaction intensity observed [1]
O=[N+]([O-])c1ccc(Cl)c([N+](=O)[O-])c1 [DNCB, 2,4-dinitrochlorobenzene] | 100 | 100 | 83 | 63 | 8 | 85% and 86% | 55 | 50 | 66 | 93 | 26 | – | – | –
Nc1ccc(N)cc1 [PPD, para-phenylenediamine] | – | – | – | – | – | – | – | – | – | – | – | less than 0.2% | 1.5 | no detectable impact
